The source of these data is patent US5055470A, “Method of treatment of ischemia in brain” (Bristol-Myers Squibb Co., priority 1989, dated 1991).

One experiment concerns hypoxia-induced death. In words: Protection against hypoxia-induced death (1-minute exposure to 100% nitrogen atmosphere). The format is in vivo. The conditions noted are these: rats. The protocol:
Groups of rats received either water or drug solution in various doses given i.p. at specified times prior to a 1-minute exposure to a 100% nitrogen atmosphere. This 1-minute nitrogen exposure is lethal within 10 minutes to all animals receiving only vehicle. A 25 mg/kg treatment given 15 minutes before nitrogen exposure protected 3 of 8 animals while giving 50 mg/kg protected all animals.

The test system of experiment [1] is NMDA-evoked release of acetylcholine, rat striatal brain tissue slices. Kind of experiment: Antagonism of NMDA-evoked release of tritiated acetylcholine from striatal slices. Type of experiment: cell-based. To be noted: rat striatal slices preloaded with tritiated choline; 0.5 mM NMDA; 50 μM compound. The protocol:
Slices of rat striatal brain tissue were preloaded with tritiated choline and the release of tritiated acetylcholine evoked by NMDA in the presence or absence of BMY 14802 hydrochloride is measured.

In the case of `OC(CCCN1CCN(c2ncc(F)cn2)CC1)c1ccc(F)cc1` (stereo not shown) [BMY 14802, 4-[4-(5-fluoro-2-pyrimidinyl)-1-piperazinyl]-1-(4-fluorophenyl)butanol], the “animals protected from hypoxia-induced death” value is on record as 3 of 8 in the experiment on hypoxia-induced death (25 mg/kg i.p. 15 minutes before nitrogen exposure); 4 of 8 in the experiment on hypoxia-induced death (25 mg/kg i.p. 30 minutes before nitrogen exposure); “no protection” in the experiment with hypoxia-induced death (25 mg/kg i.p. 60 minutes before nitrogen exposure); “all animals” with hypoxia-induced death (50 mg/kg i.p. 15 minutes before nitrogen exposure); 3 of 8 in the experiment on hypoxia-induced death (50 mg/kg i.p. 30 minutes before nitrogen exposure); 2 of 8 in the experiment with hypoxia-induced death (50 mg/kg i.p. 60 minutes before nitrogen exposure). Further, the “attenuation of acetylcholine release evoked by NMDA” value in experiment [1] was “significant attenuation”.
